The results in this text go back to PubChem BioAssay AID463204 (Broad Institute, 2010).

Calls of active or inactive are those of the source.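 How the source made its calls: active means AC50 no more than ten times the top concentration tested, that is within one log above it; inconclusive means flat curve fit with activity between 30% and 70%, or invalid poor fit; inactive means AC50 beyond ten times the top tested dose.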

As a reminder, the AC50 is the concentration at which the activity in the assay is half-maximal.

For the assay, the system named is S. cerevisiae Mot1-301 ts growth rescue, BacTiter-Glo ATP luminescence. The experiment in a line: growth rescue of Mot1-301 ts yeast, confirmation, SUMOylation pathway inhibitor project, whole organism, S. cerevisiae, Mot1-301 ts mutant, luminescence, dose retest (AID 463204).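 Further: growth at restrictive 38.5 degrees C of Mot1-301 OY566 strain; actives raise luminescence by restoring growth of the ts mutant at high temperature.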
`COc1ccc(C(=O)Sc2ccc(Cl)cc2)cc1OC`: the AC50 was > 42 µM (inactive).

`COC(=O)/C=C\C(=O)Nc1cccc([N+](=O)[O-])c1`: the AC50 was 2.95 µM.

In the case of `O=C(CSc1nnc(CNC(=O)c2ccccc2)o1)NCc1ccco1`, the AC50 was > 42 µM (inactive).

As to `CCOC(=O)Cn1c(=O)oc2cc(S(=O)(=O)NC(C)(C)CC)ccc21`, the AC50 was > 42 µM (inactive).

Regarding `COc1ccc(-c2cc(C(=O)Nc3cc(C)ccc3O)no2)cc1`, the AC50 is > 42 µM (inactive).

Turning to `CCn1c(SCC(=O)OC)nnc1-c1ccncc1`, the AC50 was > 42 µM (inactive).

As to `Cc1cc(OCC(=O)NCC2CCC(C(=O)O)CC2)c2c(C)c(C)c(=O)oc2c1` (stereo not drawn), the AC50 was > 42 µM (inactive).

`CCOC(=O)C(C)(C)Sc1nc2c(cnn2-c2ccc(C)cc2)c(=O)[nH]1`: the AC50 was > 42 µM (inactive).

On to `COc1ccc(/C=N\NC(=O)c2cc(OCC(F)(F)F)ccc2OCC(F)(F)F)cc1`, for which the AC50 is > 42 µM (inactive).

`Cc1ccc(S(=O)(=O)/N=C(/Nc2ccc([N+](=O)[O-])cc2[N+](=O)[O-])c2ccccc2)cc1`: the AC50 was 15.8 µM.

For `C/C(O)=C(\N=Nc1cc(C)ccc1O)C(N)=O`, the AC50 is > 42 µM (inactive).

For the molecule `COc1ccc(-c2cc(C(F)(F)F)n3ncc(C(=O)O)c3n2)cc1OC`, the AC50 was > 42 µM (inactive).

For `CC1(C)C2CC=C(/C=N/NC(=S)Nc3cccnc3)C1C2` (stereo not drawn), the AC50 was > 42 µM (inactive).

Regarding `COc1cccc(/C=C/C(=O)OCC(=O)Nc2ccc(Cl)cn2)c1`, the AC50 is > 42 µM (inactive).

Turning to `COc1ccc(N=C2SC(C(=O)O)CC(=O)N2Cc2ccc(OC)c(OC)c2)cc1` (stereo not drawn), the AC50 is > 42 µM (inactive).

In the case of `CCOC(=O)c1cccc(NC(=O)C2CCCN(S(=O)(=O)c3c(C)n[nH]c3C)C2)c1` (stereo not drawn), the AC50 is > 42 µM (inactive).

Take `COc1ccc(Oc2c(C)oc3cc(OC(=O)N(C)C)ccc3c2=O)cc1`: the AC50 is > 42 µM (inactive).

`Brc1ccc(-c2cn3cccnc3n2)cc1`: the AC50 was > 42 µM (inactive).

On to `COCCN1C=C(C(=O)OC)C(c2cc3c(cc2Br)OCO3)C(C(=O)OC)=C1`, for which the AC50 was > 42 µM (inactive).

Turning to `CCS(=O)(=O)N1CCC(C(=O)NCCCN2CCN(c3ccccc3F)CC2)CC1`, the AC50 is > 42 µM (inactive).

Turning to `COc1ccc2c(c1)[C@H]1[C@H](CO2)[C@H](c2ccccc2)[C@]2(C)C(=O)Nc3ccc(C)cc3C(=O)N12`, the AC50 was > 42 µM (inactive).

With `CCCNC(=O)COC(=O)CCC(=O)c1cccs1`, the AC50 is > 42 µM (inactive).

For the molecule `O=C(Oc1ccccc1N1C(=O)C2CC=CCC2C1=O)c1ccc(Br)cc1` (stereo not drawn), the AC50 was > 42 µM (inactive).

With `Cc1ccc(-c2nn(-c3ccccc3)cc2C(=O)N2CCN(c3ccccn3)CC2)cc1`, the AC50 was > 42 µM (inactive).

As for `O=C(N/C(=C/c1ccc2c(c1)OCO2)C(=O)N1CCOCC1)c1cccs1`, the AC50 was > 42 µM (inactive).

With `Cc1cc(O)c(/C=N/Nc2cccc(Cl)c2)c(=O)o1`, the AC50 is 3.95 µM.

Turning to `COc1ccc(NC(=O)CSc2nccc(C)n2)cc1`, the AC50 is > 42 µM (inactive).

For the molecule `O=c1[nH]cnc2sc3c(c12)CCC3`, the AC50 was > 42 µM (inactive).

Turning to `COC(=O)[C@@]12CCCCN1[C@H](c1ccc(-c3cccc(Cl)c3)c(OC)c1)[C@H]1C(=O)N(C)C(=O)[C@H]12`, the AC50 is > 42 µM (inactive).

For the molecule `O=C(CSc1ncccc1C(=O)O)NC1CCCCC1`, the AC50 was > 42 µM (inactive).

As to `c1ccc(C(c2ccccc2)N2CCN(C(c3ccccn3)c3nnnn3C3CCCC3)CC2)cc1` (stereo not drawn), the AC50 is > 42 µM (inactive).

In the case of `O=C(CSc1nnc(-c2cccs2)n1-c1ccccc1)c1ccc2c(c1)OCCO2`, the AC50 is > 42 µM (inactive).

Consider `CC1(C)C=C(c2ccc(O)cc2)CC(C)(C)N1`, for which the AC50 was > 42 µM (inactive).

In the case of `S=C(Nc1ccccc1Cl)N1CCOCC1`, the AC50 is > 42 µM (inactive).

`COC(=O)CCCC(=O)NCC1(N(C)Cc2ccccc2)Cc2ccccc2C1`: the AC50 was > 42 µM (inactive).

Consider `Cc1cccc(NC(=S)NC(=O)/C=C/c2ccco2)c1`, for which the AC50 is > 42 µM (inactive).

On to `CCOc1ccc(NC(=O)CC2C(=O)N(c3ccccc3)C(=S)N2Cc2ccccn2)cc1` (stereo not drawn), for which the AC50 is > 42 µM (inactive).

As to `O=C1OC(Cc2ccccn2)C(O)=C1C1=NCCCN1` (stereo not drawn), the AC50 was > 42 µM (inactive).

On to `COc1cc(/C=N/NC(=O)c2cccnc2)ccc1OCC(=O)N1CCOCC1`, for which the AC50 is > 42 µM (inactive).

In the case of `COc1cccc(NC(=O)CN2CCN(c3ccccc3F)CC2)c1`, the half-maximal activity concentration (AC50) is 39.1 µM.

For the molecule `CCOc1c(Cl)cc(CNCC(O)c2ccccc2)cc1OC` (stereo not drawn), the AC50 was > 42 µM (inactive).

With `Cc1cc(C)c(NC(=O)CNC(=O)c2cc([N+](=O)[O-])ccc2N2CCOCC2)c(C)c1`, the AC50 is > 42 µM (inactive).

In the case of `CCCOc1ccccc1C1NC(=O)NC(C)=C1C(=O)OCCOCC` (stereo not drawn), the AC50 was > 42 µM (inactive).

As for `CCN1C(=S)N[C@@H](c2cccs2)C(C(=O)OC)=C1C`, the AC50 was > 42 µM (inactive).

Consider `Cc1cccc2nc(COc3ccc4ccccc4c3Br)cn12`, for which the AC50 is 11.9 µM.

Consider `CCCC1Cc2c(sc3ncnc(N)c23)CO1` (stereo not drawn), for which the AC50 is > 42 µM (inactive).

Consider `Cc1nc(CSc2nnc3scc(-c4ccccc4)n23)cs1`, for which the AC50 was > 42 µM (inactive).

On to `COc1cccc(-n2nnc3c(=O)n(CC(=O)N4CCCc5ccccc54)cnc32)c1`, for which the AC50 was > 42 µM (inactive).

As to `COc1ccc(C2CC3(CC(C)(C)NC(=S)N3)Oc3cc(O)cc(C)c32)cc1` (stereo not drawn), the AC50 was > 42 µM (inactive).

With `CN(C(=S)NC1=CCS(=O)(=O)C1)C1CCCCC1`, the AC50 is > 42 µM (inactive).

Take `CCOc1ccc(S(=O)(=O)N2CCN(CC(O)COc3cccc([N+](=O)[O-])c3)CC2)cc1` (stereo not drawn): the AC50 is > 42 µM (inactive).

Regarding `Cc1ccc(-n2nnnc2C(Cl)(Cl)c2nnnn2-c2ccc(C)cc2)cc1`, the AC50 is 0.73 µM.

Turning to `C[C@@]12C(=O)Nc3cc(F)ccc3C(=O)N1[C@H]1c3ccccc3OC[C@@H]1[C@@H]2c1ccccc1`, the AC50 was 5.7 µM.

As to `O=C(c1ccc2c(=O)n(Cc3ccccc3Cl)c(=S)[nH]c2c1)N1CCOCC1`, the AC50 is > 42 µM (inactive).

On to `Cc1cccc(CS(=O)(=O)Cc2ccc(C(=O)NCC3CCCO3)o2)c1` (stereo not drawn), for which the AC50 was > 42 µM (inactive).

Take `Cc1ccc(-c2ccc(/C=N/n3cnnc3)o2)cc1`: the AC50 is > 42 µM (inactive).

Consider `CS(=O)(=O)Nc1ccccc1C(=O)NCCSCc1ccccc1`, for which the AC50 is > 42 µM (inactive).

As for `O=S(=O)(c1ccc(C2CCCCC2)cc1)N1CCCC1`, the AC50 is > 42 µM (inactive).

Turning to `Cc1ccc(N(CC(=O)NC2CCCC2)C(=O)CCC(=O)Nc2ccccn2)cc1C`, the AC50 was > 42 µM (inactive).

Consider `Cc1cccc(N/N=C/c2c(O)[nH]c(=S)[nH]c2=O)c1`, for which the AC50 is > 42 µM (inactive).

For the molecule `CCCCOCCCNS(=O)(=O)Cc1ccccc1`, the AC50 was > 42 µM (inactive).

Turning to `CC1CN(S(=O)(=O)c2cccc(C(=O)N=c3sccn3C)c2)CC(C)O1` (stereo not drawn), the AC50 is > 42 µM (inactive).

For `O=C1C2CC=C(Cl)CC2C(=O)N1c1ncn[nH]1` (stereo not drawn), the AC50 was > 42 µM (inactive).

Consider `Oc1cccc(/C=N/N2CCN(c3ccccn3)CC2)c1`, for which the AC50 is > 21 µM (inactive).

As for `CC1Cc2ccccc2N1C(=O)Cn1c(=O)cc(O)c2ccccc21` (stereo not drawn), the AC50 is > 42 µM (inactive).

Take `CSc1ncccc1C(=O)NC1CCCc2c1cnn2-c1ccc(C)c(C)c1` (stereo not drawn): the AC50 was > 42 µM (inactive).

Consider `COc1cc(C(C2=C(O)CC(C)(C)CC2=O)C2C(=O)CC(C)(C)CC2=O)cc(OC)c1OC` (stereo not drawn), for which the AC50 is > 42 µM (inactive).

For the molecule `CCCOC(=O)c1ccc(O)c(OC)c1`, the AC50 was > 42 µM (inactive).

On to `COc1ccc(S(=O)(=O)N2CCCC2CNC(=O)C(=O)NCc2ccccn2)cc1` (stereo not drawn), for which the AC50 is > 42 µM (inactive).

Regarding `CCc1ccc(NC(=S)N(Cc2cccc(Br)c2)CC2CCC(C(=O)O)CC2)cc1` (stereo not drawn), the AC50 was > 42 µM (inactive).

Regarding `CCNC(=O)COc1ccc(S(=O)(=O)Nc2ccccc2)cc1`, the AC50 is > 21 µM (inactive).

As to `COc1ccccc1N(CC(=O)NCC1CCCO1)C(=O)CCC(=O)Nc1cc(C)on1` (stereo not drawn), the AC50 was > 42 µM (inactive).

With `COc1ccc(NC(=O)c2ccc(COc3ccccc3OC)o2)cc1OC`, the AC50 was > 42 µM (inactive).

Regarding `CCOCCCNC(=O)C(c1ccc(OC)cc1)N(Cc1cccs1)C(=O)c1ccccn1` (stereo not drawn), the AC50 was > 42 µM (inactive).

On to `COc1ccc2cc(C(=O)Nc3ccc(Cl)cc3)sc(=O)c2c1OC`, for which the AC50 was > 42 µM (inactive).

For the molecule `COC(=O)c1cccc(NC(=O)CN(c2ccc3c(c2)OCO3)S(C)(=O)=O)c1C`, the AC50 is > 42 µM (inactive).

As to `COc1ccc(-n2c3c(cc(C(=O)NCC(=O)c4ccccc4)c2=O)C(=O)CC(C)(C)C3)cc1`, the AC50 is > 42 µM (inactive).

In the case of `CCc1nccn1S(=O)(=O)c1cc(OC)ccc1OC`, the AC50 was > 42 µM (inactive).

For the molecule `COc1cc2c(cc1NC(=O)c1cccnc1)oc1ccccc12`, the AC50 is > 42 µM (inactive).

As to `CC(=O)Cc1nsc(Nc2cccc(C)c2)n1`, the AC50 is > 42 µM (inactive).

Turning to `NS(=O)(=O)c1cccc(NC(=O)c2cccnc2Oc2ccccc2)c1`, the AC50 was > 42 µM (inactive).

As to `O=S(=O)(NCCN1CCCC1)c1cccc2cccnc12`, the AC50 is > 42 µM (inactive).

As to `COc1ccccc1CNC(=O)CCC(=O)Nc1nnc(C(C)C)s1`, the AC50 is > 42 µM (inactive).

In the case of `CC(c1ccccn1)N(CCN(C)C)C(=S)Nc1cccc(F)c1` (stereo not drawn), the AC50 was > 42 µM (inactive).

As for `CCN(CC)C(=O)C1CCCN(c2ccc([N+](=O)[O-])cc2/C=N/NC(=O)c2cccc(Br)c2)C1` (stereo not drawn), the AC50 is > 42 µM (inactive).

With `CCOc1ccc(CCN2CN(C3CCCCC3)CNC2=S)cc1OCC`, the AC50 was > 42 µM (inactive).

`O=C1CC(c2ccccc2)C(=O)N1c1cccc(O)c1` (stereo not drawn): the AC50 is > 42 µM (inactive).

Regarding `CC1(C)CCC(=O)N2CC[C@H]3C[C@H](OC(=O)Nc4ccc(Br)cc4)C[C@@H]1[C@H]32`, the AC50 was > 42 µM (inactive).
